Measurements: patent US9475817B2 (BRISTOL-MYERS SQUIBB COMPANY, priority 2012, dated 2016)

Columns and labels:
[1] = target: CK1ε (Homo sapiens (Human), UniProt P49674); assay: CK1ε kinase assay (Caliper LabChip, fluoresceinated peptide substrate); format: biochemical; settings: 200 pM CK1ε, 50 μM ATP, 1.5 μM peptide substrate, 22 hours room temperature
Experimental: (§1) CK1ε and CK1δ Kinase Assays
(§2) The kinase assay was performed in V-bottom 384-well plates. […] The reaction was incubated at room temperature for 22 hours and terminated by adding 45 μl of 35 mM EDTA to each sample. […] Compounds were dissolved at 10 mM in dimethylsulfoxide (DMSO) and evaluated at eleven concentrations. IC50 values were derived by non-linear regression analysis.

[2] = target: CK1δ (Homo sapiens (Human), UniProt P48730); assay: CK1δ kinase assay (Caliper LabChip, fluoresceinated peptide substrate); format: biochemical; settings: 200 pM CK1δ, 50 μM ATP, 1.5 μM peptide substrate, 22 hours room temperature
Chain of CK1δ (P48730 whole entry): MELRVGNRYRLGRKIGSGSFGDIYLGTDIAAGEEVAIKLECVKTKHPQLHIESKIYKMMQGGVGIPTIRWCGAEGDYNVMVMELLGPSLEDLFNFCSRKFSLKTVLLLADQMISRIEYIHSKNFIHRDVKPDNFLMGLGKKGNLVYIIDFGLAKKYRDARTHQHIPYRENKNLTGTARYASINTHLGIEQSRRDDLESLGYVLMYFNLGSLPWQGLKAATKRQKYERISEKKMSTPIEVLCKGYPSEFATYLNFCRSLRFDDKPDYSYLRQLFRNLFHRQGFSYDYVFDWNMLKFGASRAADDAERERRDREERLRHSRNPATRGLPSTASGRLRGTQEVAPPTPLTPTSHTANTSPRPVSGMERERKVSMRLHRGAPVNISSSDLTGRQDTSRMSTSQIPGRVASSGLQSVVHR
Experimental: as §1, §2

Chain of CK1ε (P49674 whole entry): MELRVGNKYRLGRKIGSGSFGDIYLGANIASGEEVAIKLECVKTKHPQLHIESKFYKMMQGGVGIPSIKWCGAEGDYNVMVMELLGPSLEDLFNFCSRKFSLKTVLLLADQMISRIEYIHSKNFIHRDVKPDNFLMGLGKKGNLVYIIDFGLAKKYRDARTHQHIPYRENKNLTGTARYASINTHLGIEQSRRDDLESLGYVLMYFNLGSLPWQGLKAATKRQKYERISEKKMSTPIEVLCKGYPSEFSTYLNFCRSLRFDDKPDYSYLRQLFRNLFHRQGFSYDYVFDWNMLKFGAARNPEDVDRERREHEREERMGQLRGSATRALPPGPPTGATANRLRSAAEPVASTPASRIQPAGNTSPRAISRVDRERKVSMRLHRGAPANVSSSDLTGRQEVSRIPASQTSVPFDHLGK

Row | Structure (SMILES) | IC50 [1] [nM] | IC50 [2] [nM]
1 | O=C(Nc1cn2nc(-c3cn(C4CC4)nc3-c3ccc(F)cc3)ccc2n1)c1cc(F)nc(F)c1 [Compound 105, N-(6-(1-cyclopropyl-3-(4-fluorophenyl)-1H-pyrazol-4-yl)imidazo[1,2-b]pyridazin-2-yl)-2,6-difluoroisonicotinamide] | 46.5 | 4.8
2 | O=C(Nc1cn2nc(-c3cn(C4CC4)nc3-c3ccc(F)cc3)ccc2n1)c1ccncc1F [Compound 106, N-(6-(1-cyclopropyl-3-(4-fluorophenyl)-1H-pyrazol-4-yl)imidazo[1,2-b]pyridazin-2-yl)-3-fluoroisonicotinamide] | 14 | 3.5
3 | O=C(Nc1cn2nc(-c3cn(C4CC4)nc3-c3ccc(F)cc3)ccc2n1)c1cccc(-c2cccnc2)c1 [Compound 108, N-(6-(1-cyclopropyl-3-(4-fluorophenyl)-1H-pyrazol-4-yl)imidazo[1,2-b]pyridazin-2-yl)-3-(pyridin-3-yl) benzamide] | 32.6 | 2
4 | Cc1nc(-c2cccnc2)sc1C(=O)Nc1cn2nc(-c3cn(C4CC4)nc3-c3ccc(F)cc3)ccc2n1 [Compound 109, N-(6-(1-cyclopropyl-3-(4-fluorophenyl)-1H-pyrazol-4-yl)imidazo[1,2-b]pyridazin-2-yl)-4-methyl-2-(pyridin-3-yl)thiazole-5-carboxamide] | 12.3 | 2.5
5 | Cc1nc(-c2ccccn2)sc1C(=O)Nc1cn2nc(-c3cn(C4CC4)nc3-c3ccc(F)cc3)ccc2n1 [Compound 110, N-(6-(1-cyclopropyl-3-(4-fluorophenyl)-1H-pyrazol-4-yl)imidazo[1,2-b]pyridazin-2-yl)-4-methyl-2-(pyridin-2-yl)thiazole-5-carboxamide] | 28.8 | 5.5
6 | Cc1nc(-c2ccncc2)sc1C(=O)Nc1cn2nc(-c3cn(C4CC4)nc3-c3ccc(F)cc3)ccc2n1 [Compound 111, N-(6-(1-cyclopropyl-3-(4-fluorophenyl)-1H-pyrazol-4-yl)imidazo[1,2-b]pyridazin-2-yl)-4-methyl-2-(pyridin-4-yl)thiazole-5-carboxamide] | 35 | 6.2
7 | Cn1nc(-c2ccc(F)cc2)c(-c2ccc3nc(NC(=O)c4ccnc(F)c4)cn3n2)c1N1CCNCC1 [Compound 113, 2-fluoro-N-(6-(3-(4-fluorophenyl)-1-methyl-5-(piperazin-1-yl)-1H-pyrazol-4-yl)imidazo[1,2-b]pyridazin-2-yl)isonicotinamide] | 2.3 | 0.6
8 | CN1CCN(c2c(-c3ccc4nc(NC(=O)c5ccnc(F)c5)cn4n3)c(-c3ccc(F)cc3)nn2C)CC1 [Compound 116, 2-fluoro-N-(6-(3-(4-fluorophenyl)-1-methyl-5-(4-methylpiperazin-1-yl)-1H-pyrazol-4-yl)imidazo [1,2-b]pyridazin-2-yl)isonicotinamide] | 9.3 | 0.7
9 | COc1cc(C(=O)Nc2cn3nc(-c4c(-c5ccc(F)cc5)nn(C)c4N4CCNCC4)ccc3n2)ccn1 [Compound 118, N-(6-(3-(4-Fluorophenyl)-1-methyl-5-(piperazin-1-yl)-1H-pyrazol-4-yl)imidazo[1,2-b]pyridazin-2-yl)-2-methoxyisonicotinamide] | 3.6 | 0.8
10 | Cn1nc(-c2ccc(F)cc2)c(-c2ccc3nc(NC(=O)c4ccnc(F)c4)cn3n2)c1N1CCN(CCCF)CC1 [Compound 119, 2-Fluoro-N-(6-(3-(4-fluorophenyl)-5-(4-(3-fluoropropyl)piperazin-1-yl)-1-methyl-1H-pyrazol-4-yl)imidazo[1,2-b]pyridazin-2-yl)isonicotinamide] | 10.1 | 0.3
11 | COCCN1CCN(c2c(-c3ccc4nc(NC(=O)c5ccnc(F)c5)cn4n3)c(-c3ccc(F)cc3)nn2C)CC1 [Compound 120, 2-Fluoro-N-(6-(3-(4-fluorophenyl)-5-(4-(2-methoxyethyl)piperazin-1-yl)-1-methyl-1H-pyrazol-4-yl)imidazo[1,2-b]pyridazin-2-yl)isonicotinamide] | 18.6 | 0.73
12 | Cn1nc(-c2ccc(F)cc2)c(-c2ccc3nc(NC(=O)c4ccnc(F)c4)cn3n2)c1N1CCN(C(=O)CC(F)(F)F)CC1 [Compound 121, 2-Fluoro-N-(6-(3-(4-fluorophenyl)-1-methyl-5-(4-(3,3,3-trifluoropropanoyl)piperazin-1-yl)-1H-pyrazol-4-yl)imidazo[1,2-b]pyridazin-2-yl)isonicotinamide] | 14.4 | 1.2
13 | Cn1nc(-c2ccc(F)cc2)c(-c2ccc3nc(NC(=O)c4ccnc(F)c4)cn3n2)c1N1CCN(C(=O)CN)CC1 [Compound 123, N-(6-(5-(4-(2-Aminoacetyl)piperazin-1-yl)-3-(4-fluorophenyl)-1-methyl-1H-pyrazol-4-yl)imidazo[1,2-b]pyridazin-2-yl)-2-fluoroisonicotinamide] | 0.2 | 0.1
14 | Cn1nc(-c2ccc(F)cc2)c(-c2ccc3nc(NC(=O)c4ccnc(F)c4)cn3n2)c1N1CCN(CC(N)=O)CC1 [Compound 124, N-(6-(5-(4-(2-Amino-2-oxoethyl)piperazin-1-yl)-3-(4-fluorophenyl)-1-methyl-1H-pyrazol-4-yl)imidazo[1,2-b]pyridazin-2-yl)-2-fluoroisonicotinamide] | 1.3 | 0.2
15 | Cn1nc(-c2ccc(F)cc2)c(-c2ccc3nc(NC(=O)c4ccnc(F)c4)cn3n2)c1N1CCN(CCC#N)CC1 [Compound 125, N-(6-(5-(4-(2-Cyanoethyl)piperazin-1-yl)-3-(4-fluorophenyl)-1-methyl-1H-pyrazol-4-yl)imidazo[1,2-b]pyridazin-2-yl)-2-fluoroisonicotinamide] | 4.6 | 0.6
16 | Cn1nc(-c2ccc(F)cc2)c(-c2ccc3nc(NC(=O)c4ccnc(F)c4)cn3n2)c1N1CCN(CCS(C)(=O)=O)CC1 [Compound 126, 2-Fluoro-N-(6-(3-(4-fluorophenyl)-1-methyl-5-(4-(2-(methylsulfonyl)ethyl)piperazin-1-yl)-1H-pyrazol-4-yl)imidazo[1,2-b]pyridazin-2-yl)isonicotinamide] | 124 | 2.9
17 | Cn1nc(-c2ccc(F)cc2)c(-c2ccc3nc(NC(=O)c4ccnc(F)c4)cn3n2)c1N1CCN(C[C@@H](O)C(F)(F)F)CC1 [Compound 127, (R)-2-Fluoro-N-(6-(3-(4-fluorophenyl)-1-methyl-5-(4-(3,3,3-trifluoro-2-hydroxypropyl)piperazin-1-yl)-1H-pyrazol-4-yl)imidazo[1,2-b]pyridazin-2-yl)isonicotinamide] | 6.2 | 1
18 | Cn1nc(-c2ccc(F)cc2)c(-c2ccc3nc(NC(=O)c4ccnc(F)c4)cn3n2)c1N1CCN(C[C@H](O)C(F)(F)F)CC1 [Compound 128, (S)-2-Fluoro-N-(6-(3-(4-fluorophenyl)-1-methyl-5-(4-(3,3,3-trifluoro-2-hydroxypropyl)piperazin-1-yl)-1H-pyrazol-4-yl)imidazo[1,2-b]pyridazin-2-yl)isonicotinamide] | 10.6 | 1.5
19 | Cn1nc(-c2ccc(F)cc2)c(-c2ccc3nc(NC(=O)c4ccncc4)cn3n2)c1N1CCNCC1 [Compound 129, N-(6-(3-(4-Fluorophenyl)-1-methyl-5-(piperazin-1-yl)-1H-pyrazol-4-yl)imidazo[1,2-b]pyridazin-2-yl)isonicotinamide] | 3.3 | 0.9
20 | Cn1nc(-c2ccc(F)cc2)c(-c2ccc3nc(NC(=O)c4ccncc4)cn3n2)c1N1CCN(CCC(F)(F)F)CC1 [Compound 130, N-(6-(3-(4-Fluorophenyl)-1-methyl-5-(4-(3,3,3-trifluoropropyl)piperazin-1-yl)-1H-pyrazol-4-yl)imidazo[1,2-b]pyridazin-2-yl)isonicotinamide] | 23.5 | 1.4
21 | Cn1nc(-c2ccc(F)cc2)c(-c2ccc3nc(NC(=O)c4ccncc4)cn3n2)c1N1CCN(Cc2ccon2)CC1 [Compound 131, N-(6-(3-(4-Fluorophenyl)-5-(4-(isoxazol-3-ylmethyl)piperazin-1-yl)-1-methyl-1H-pyrazol-4-yl)imidazo[1,2-b]pyridazin-2-yl)isonicotinamide] | 3.1 | 0.3
22 | Cn1nc(-c2ccc(F)cc2)c(-c2ccc3nc(NC(=O)c4ccncc4)cn3n2)c1N1CCN(C(=O)CC(F)(F)F)CC1 [Compound 132, N-(6-(3-(4-Fluorophenyl)-1-methyl-5-(4-(3,3,3-trifluoropropanoyl)piperazin-1-yl)-1H-pyrazol-4-yl)imidazo[1,2-b]pyridazin-2-yl)isonicotinamide] | 6.7 | 0.6
23 | Cn1nc(-c2ccc(F)cc2)c(-c2ccc3nc(NC(=O)c4ccncc4)cn3n2)c1N1CCN(C(=O)c2ccon2)CC1 [Compound 133, N-(6-(3-(4-Fluorophenyl)-5-(4-(isoxazole-3-carbonyl)piperazin-1-yl)-1-methyl-1H-pyrazol-4-yl)imidazo[1,2-b]pyridazin-2-yl)isonicotinamide] | 8.1 | 1
24 | Cn1nc(-c2ccc(F)cc2)c(-c2ccc3nc(NC(=O)c4ccnc(N5CCOCC5)c4)cn3n2)c1N1CCN(CCC(F)(F)F)CC1 [Compound 135, N-(6-(3-(4-Fluorophenyl)-1-methyl-5-(4-(3,3,3-trifluoropropyl)piperazin-1-yl)-1H-pyrazol-4-yl)imidazo[1,2-b]pyridazin-2-yl)-2-morpholinoisonicotinamide] | 35 | 1.6
25 | Cn1nc(-c2ccc(F)cc2)c(-c2ccc3nc(NC(=O)c4ccnc(N5CCOCC5)c4)cn3n2)c1N1CCN(Cc2ccon2)CC1 [Compound 136, N-(6-(3-(4-Fluorophenyl)-5-(4-(isoxazol-3-ylmethyl)piperazin-1-yl)-1-methyl-1H-pyrazol-4-yl)imidazo[1,2-b]pyridazin-2-yl)-2-morpholinoisonicotinamide] | 12 | 0.8
